Activity calls are given as the source filed them. The rule behind the calls is not given here. Where a SMILES comes first, the peptide text is derived from it. Bridges are numbered along the chain shown (N, C = ends).
What was measured:
4T1 [1] = assay: Cytotoxicity against mouse 4T1 cells assessed as cell death rate at 10 uM by PI staining based confocal microscopic analysis; format: functional
4T1 [2] = assay: Cytotoxicity against mouse 4T1 cells assessed as cell death rate at 4 uM measured after 15 mins by MTT assay; format: functional, cell-based
4T1 [3] = assay: Induction of apoptosis in mouse 4T1 cells assessed as increase in caspase-3 activity measured at 60 mins; format: functional, cell-based
4T1 [4] = assay: Cytotoxicity against mouse 4T1 cells assessed as cell death rate at 4 uM measured after 2 hrs by MTT assay; format: functional
4T1 [5] = assay: Induction of immunogenic cell death in mouse 4T1 cells assessed as HMGB1 release at 4 to 32 uM measured after 4 hrs; format: functional, cell-based; details: dose 4-32 µM
4T1 [6] = assay: Induction of apoptosis in mouse 4T1 cells assessed as increase in caspase-3 activity measured at 30 mins; format: functional, cell-based
4T1 [7] = assay: Induction of morphological changes in mouse 4T1 cells at 10 uM by PI staining based confocal microscopic analysis; format: functional, cell-based
4T1 [8] = assay: Induction of ROS generation in mouse 4T1 cells 24 hrs by DCFDA-fluorescence based flow cytometry; format: functional, cell-based
4T1 [9] = assay: Induction of apoptosis in mouse 4T1 cells assessed as early apoptotic cell incubated for 24 hrs by Annexin V/FITC staining based flow cytometry analysis; format: functional
4T1 [10] = assay: Induction of necrosis in mouse 4T1 cells cocultured with mouse BMDC cells at 15 uM incubated for 4 hrs by flow cytometry analysis; format: functional, cell-based
4T1 [11] = assay: Induction of immunogenic cell death in mouse 4T1 cells assessed as HMGB1 release at 4 to 32 uM measured after 2 hrs; format: functional, cell-based; details: dose 4-32 µM
4T1 [12] = assay: Induction of apoptosis in mouse 4T1 cells assessed as cell death in presence of Ac-DEVD-CHO; format: functional, cell-based
4T1 [13] = assay: Cytotoxicity against mouse 4T1 cells assessed as cell viability by MTT assay; format: functional, cell-based
4T1 [14] = assay: Induction of immunogenic cell death in mouse 4T1 cells assessed as ATP release at 4 to 32 uM measured after 4 hrs; format: functional, cell-based; details: dose 4-32 µM
4T1 [15] = assay: Induction of immunogenic cell death in mouse 4T1 cells assessed as ATP release at 4 to 32 uM measured after 2 hrs; format: functional, cell-based; details: dose 4-32 µM
4T1 [16] = assay: Induction of immunogenic cell death in mouse 4T1 cells assessed as increase in CRT translocation to cell surface at 2 to 16 uM; format: functional, cell-based; details: dose 2-16 µM
4T1 [17] = assay: Induction of morphological changes in mouse 4T1 cells at 4 uM by PI staining based confocal microscopic analysis; format: functional, cell-based
4T1 [18] = assay: Induction of immunogenic cell death in mouse 4T1 cells assessed as HMGB1 release at 2 to 16 uM measured after 2 hrs; format: functional, cell-based; details: dose 2-16 µM
4T1 [19] = assay: Induction of immunogenic cell death in mouse 4T1 cells assessed as ATP release at 2 to 16 uM measured after 2 hrs; format: functional, cell-based; details: dose 2-16 µM
4T1 [20] = assay: Induction of necrosis in mouse 4T1 cells cocultured with mouse BMDC cells at 6 uM incubated for 4 hrs by flow cytometry analysis; format: functional, cell-based
4T1 [21] = assay: Cytotoxicity against mouse 4T1 cells assessed as cell death rate at 4 uM measured at 15 mins by MTT assay relative to control; format: functional; details: 0.25 h
4T1 [22] = assay: Cytotoxicity against mouse 4T1 cells assessed as cell death rate at 4 uM measured at 30 mins by MTT assay relative to control; format: functional; details: 0.5 h
4T1 [23] = assay: Induction of immunogenic cell death in mouse 4T1 cells assessed as ATP release at 2 to 16 uM measured after 4 hrs; format: functional, cell-based; details: dose 2-16 µM
4T1 [24] = assay: Induction of necroptosis in mouse 4T1 cells assessed as increase in cell viability in presence of necrostatin-1 by MTT assay; format: functional, cell-based; details: dose 0.625-30 µM
4T1 [25] = assay: Induction of morphological changes in mouse 4T1 cells at 8 uM by PI staining based confocal microscopic analysis; format: functional, cell-based
4T1 [26] = assay: Cytotoxicity against mouse 4T1 cells assessed as cell death rate at 8 uM by PI staining based confocal microscopic analysis; format: functional
4T1 [27] = assay: Induction of immunogenic cell death in mouse 4T1 cells assessed as increase in CRT translocation to cell surface at 4 to 32 uM; format: functional, cell-based; details: dose 4-32 µM
4T1 [28] = assay: Cytotoxicity against mouse 4T1 cells at 8 uM measured after 15 mins by MTT assay; format: functional, cell-based
THP-1 = assay: Induction of M1 macrophage polarization in human THP-1 cells assessed as increase in IL-1beta level measured after 48 hrs; format: functional, cell-based
4T1 [29] = assay: Cytotoxicity against mouse 4T1 cells assessed as cell death rate at 8 uM measured after 1 hr by MTT assay; format: functional
4T1 [30] = assay: Induction of necrosis in mouse 4T1 cells cocultured with mouse BMDC cells at 12 uM incubated for 4 hrs by flow cytometry analysis; format: functional, cell-based
[31] = Cytotoxicity against mouse BMDC cells; format: toxicity, cell-based; details: BMDC cells (bone marrow-derived dendritic cells)
4T1 [32] = assay: Induction of apoptosis in mouse 4T1 cells assessed as increase in late necrotic cell death incubated for 24 hrs by Annexin V/FITC staining based flow cytometry analysis; format: functional
4T1 [33] = assay: Cytotoxicity against mouse 4T1 cells; format: functional, cell-based
[34] = Cytotoxicity against mouse BMDM cells; format: toxicity, cell-based; details: BMDM cells (bone marrow-derived macrophages)
4T1 [35] = assay: Antitumor activity against mouse 4T1 cells implanted in mouse assessed as reduction in tumor size; format: functional, cell-based

SMILES: CC(=O)N[C@@H](CCCNC(=N)N)C(=O)N[C@@H](CC(C)C)C(=O)N[C@@H](CC(C)C)C(=O)N[C@@H](CCCNC(=N)N)C(=O)N[C@@H](CC(C)C)C(=O)N[C@@H](CC(C)C)C(=O)N[C@@H](CCCNC(=N)N)C(=O)N[C@@H](CC(C)C)C(=O)N[C@@H](CCCNC(=N)N)C(=O)N[C@@H](CCCNC(=N)N)C(=O)N[C@@H](CC(C)C)C(=O)N[C@@H](CC(C)C)C(=O)N[C@@H](CCCNC(=N)N)C(=O)N[C@@H](CC(C)C)C(N)=O (Ac-RLLRLLRLRRLLRL-NH2)
- Activity (4T1 [1]): Active
- Activity (4T1 [2]): Active
- Activity (4T1 [3]): Active
- Activity (4T1 [4]): 50%
- Activity (4T1 [5]): Active
- Activity (4T1 [6]): Active
- Activity (4T1 [7]): inactive
- Activity (4T1 [8]): Active
- Activity (4T1 [9]): Active
- Activity (4T1 [10]): Active
- Activity (4T1 [11]): Active
- Activity (4T1 [12]): Active
- IC50 (4T1 [13]): 9.3 µM
- Activity (4T1 [14]): Active
- Activity (4T1 [15]): Active

SMILES: CC(=O)N[C@@H](CCCNC(=N)N)C(=O)N[C@@H](CC(C)C)C(=O)N[C@@H](CC(C)C)C(=O)N[C@@H](CCCNC(=N)N)C(=O)N[C@@H](CC(C)C)C(=O)N[C@@H](CC(C)C)C(=O)N[C@@H](CCCNC(=N)N)C(=O)N[C@@H](CCCNC(=N)N)C(=O)N[C@@H](CC(C)C)C(=O)N[C@@H](CC(C)C)C(=O)N[C@@H](CCCNC(=N)N)C(=O)N[C@@H](CC(C)C)C(=O)N[C@@H](CC(C)C)C(=O)N[C@@H](CCCNC(=N)N)C(N)=O (Ac-RLLRLLRRLLRLLR-NH2)
- Activity (4T1 [16]): Active
- Activity (4T1 [17]): inactive
- Activity (4T1 [3]): inactive
- Activity (4T1 [6]): inactive
- Activity (4T1 [18]): Active
- Activity (4T1 [19]): Active
- Activity (4T1 [8]): inactive
- Activity (4T1 [20]): Active
- Activity (4T1 [21]): 30%
- Activity (4T1 [22]): 50%
- IC50 (4T1 [13]): 3.3 µM
- Activity (4T1 [23]): Active

SMILES: CC(=O)N[C@@H](Cc1ccccc1)C(=O)N[C@@H](Cc1c[nH]c2ccccc12)C(=O)N[C@@H](Cc1ccccc1)C(=O)N[C@@H](CC(C)C)C(=O)N[C@H]1CSSC[C@@H](C(N)=O)NC(=O)[C@H](CCCNC(=N)N)NC(=O)[C@H](CCCNC(=N)N)NC(=O)[C@H](CCCNC(=N)N)NC(=O)[C@H](CCCNC(=N)N)NC(=O)[C@H](CCCNC(=N)N)NC(=O)[C@H](CCCNC(=N)N)NC(=O)[C@H](CCCNC(=N)N)NC(=O)[C@H](CCCNC(=N)N)NC1=O (Ac-FWFLCRRRRRRRRC-NH2; disulfide 5-14)
- Activity (4T1 [24]): Dose-dependent-effect
- Activity (4T1 [3]): inactive
- Activity (4T1 [25]): Active
- Activity (4T1 [26]): Active
- Activity (4T1 [6]): inactive
- Activity (4T1 [27]): Active
- Activity (4T1 [28]): Active
- Activity (THP-1): Active
- Activity (4T1 [8]): Active
- Activity (4T1 [29]): 50%
- Activity (4T1 [30]): Active
- IC50 [31]: 7.8 µM
- Activity (4T1 [32]): Active
- Activity (4T1 [11]): Active
- IC50 (4T1 [33]): 7.5 µM
- IC50 [34]: 10.3 µM
- IC50 (4T1 [13]): 7.5 µM
- Activity (4T1 [35]): Active
- Activity (4T1 [14]): Active
- Activity (4T1 [15]): Active

SMILES: CC(=O)N[C@H]1CSSC[C@@H](C(=O)N[C@@H](CC(C)C)C(=O)N[C@@H](Cc2ccccc2)C(=O)N[C@@H](Cc2c[nH]c3ccccc23)C(=O)N[C@@H](Cc2ccccc2)C(N)=O)NC(=O)[C@H](CCCNC(=N)N)NC(=O)[C@H](CCCNC(=N)N)NC(=O)[C@H](CCCNC(=N)N)NC(=O)[C@H](CCCNC(=N)N)NC(=O)[C@H](CCCNC(=N)N)NC(=O)[C@H](CCCNC(=N)N)NC(=O)[C@H](CCCNC(=N)N)NC(=O)[C@H](CCCNC(=N)N)NC1=O (Ac-CRRRRRRRRCLFWF-NH2; disulfide 1-10)
- IC50 (4T1 [13]): 8.5 µM

SMILES: N=C(N)NCCC[C@@H]1NC(=O)[C@H](CCCNC(=N)N)NC(=O)[C@H](CCCNC(=N)N)NC(=O)[C@H](CCCNC(=N)N)NC(=O)[C@H](CCCNC(=N)N)NC(=O)[C@H](CCCNC(=N)N)NC(=O)[C@H](CCCNC(=N)N)NC(=O)[C@H](CCCNC(=N)N)NC(=O)[C@@H](NC(=O)[C@H](Cc2ccccc2)NC(=O)[C@H](Cc2ccccc2)NC(=O)[C@H](Cc2ccccc2)NC(=O)[C@@H](N)Cc2ccccc2)CSSC[C@@H](C(=O)O)NC1=O (H-FFFFCRRRRRRRRC-OH; disulfide 5-14)
- IC50 (4T1 [13]): 8.8 µM

SMILES: CC(=O)N[C@@H](CC(C)C)C(=O)N[C@@H](CC(C)C)C(=O)N[C@@H](CC(C)C)C(=O)N[C@@H](CC(C)C)C(=O)N[C@H]1CSSC[C@@H](C(N)=O)NC(=O)[C@H](CCCNC(=N)N)NC(=O)[C@H](CCCNC(=N)N)NC(=O)[C@H](CCCNC(=N)N)NC(=O)[C@H](CCCNC(=N)N)NC(=O)[C@H](CCCNC(=N)N)NC(=O)[C@H](CCCNC(=N)N)NC(=O)[C@H](CCCNC(=N)N)NC(=O)[C@H](CCCNC(=N)N)NC1=O (Ac-LLLLCRRRRRRRRC-NH2; disulfide 5-14)
- IC50 (4T1 [13]): 9.3 µM
